According to ChEMBL document CHEMBL1201862, “PubChem BioAssay data set” (2004):
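Five compound concentrations were applied to cells in 96-well plates for 48 hours; endpoints were derived by simple linear interpolation of the resulting dose-response curve. Abbreviation: GI50, concentration required for 50% inhibition of growth.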 Active and inactive are the calls of the source. No stated cut-off is given here; in the data, active = GI50 up to about 1.1 µM and inactive = higher.

Tests used:
Test in all cases: growth of human tumour cells (NCI), 48 h
[1] = test system: CCRF-CEM
[2] = test system: KM12
[3] = test system: HT-29
[4] = test system: TK-10
[5] = test system: HOP-62
[6] = test system: IGROV-1
[7] = test system: ACHN
[8] = test system: M14
[9] = test system: HCC 2998
[10] = test system: OVCAR-4
[11] = test system: SW-620
[12] = test system: MDA-MB-231
[13] = test system: SK-MEL-28
[14] = test system: SN12C
[15] = test system: EKVX
[16] = test system: U-251
[17] = test system: SNB-19
[18] = test system: SF-539
[19] = test system: SF-268
[20] = test system: LXFL 529

SMILES | GI50 [1] | GI50 [2] | GI50 [3] | GI50 [4] | GI50 [5] | GI50 [6] | GI50 [7] | GI50 [8] | GI50 [9] | GI50 [10] | GI50 [11] | GI50 [12] | GI50 [13] | GI50 [14] | GI50 [15] | GI50 [16] | GI50 [17] | GI50 [18] | GI50 [19] | GI50 [20]
CCCCNc1nc(SC)nc2[nH]cnc12 | > 100 µM (inactive) | > 100 µM (inactive) | > 100 µM (inactive) | > 100 µM (inactive) | > 100 µM (inactive) | > 100 µM (inactive) | > 100 µM (inactive) | > 100 µM (inactive) | > 100 µM (inactive) | > 100 µM (inactive) | > 100 µM (inactive) | > 81.1 µM (inactive) | > 100 µM (inactive) | > 100 µM (inactive) | > 87.7 µM (inactive) | > 100 µM (inactive) | > 74 µM (inactive) | > 100 µM (inactive) | 98.4 µM (inactive) | 
CN(CC(=O)O)S(=O)(=O)c1ccc2ccccc2c1 | > 100 µM (inactive) | > 100 µM (inactive) | > 100 µM (inactive) | > 100 µM (inactive) |  | > 100 µM (inactive) | > 100 µM (inactive) | > 100 µM (inactive) | > 100 µM (inactive) | > 100 µM (inactive) | > 100 µM (inactive) |  | > 100 µM (inactive) | > 100 µM (inactive) | > 100 µM (inactive) | > 100 µM (inactive) | > 100 µM (inactive) | > 100 µM (inactive) | > 100 µM (inactive) | > 100 µM (inactive)
COC(=O)C12CC(C3CC31)C1CC12 (centres undefined) | > 100 µM (inactive) |  | > 100 µM (inactive) | > 100 µM (inactive) | > 100 µM (inactive) | > 100 µM (inactive) | > 100 µM (inactive) | > 100 µM (inactive) | > 100 µM (inactive) | > 100 µM (inactive) | > 100 µM (inactive) |  | > 100 µM (inactive) | > 100 µM (inactive) |  | > 100 µM (inactive) | > 100 µM (inactive) |  | > 100 µM (inactive) | > 100 µM (inactive)
C#C[C@]1(O)CCC2C3CCc4cc(Oc5nc(F)nc(-n6c(C)nc7cc8ccccc8cc76)n5)ccc4C3CCC21C (some centres undefined) | 36.9 µM (inactive) | 32.7 µM (inactive) | 31 µM (inactive) | 65.9 µM (inactive) | 35.7 µM (inactive) | 54.3 µM (inactive) | 61.4 µM (inactive) | 43.8 µM (inactive) | 53.5 µM (inactive) |  | 35 µM (inactive) |  | > 10 µM (inactive) | 37.5 µM (inactive) | 9.35 µM (inactive) | 36.2 µM (inactive) | 53.1 µM (inactive) | 31.6 µM (inactive) | 47.6 µM (inactive) | 41.1 µM (inactive)
CCOC(=O)C(Cc1ccc(N(CCCl)CCCl)cc1)NC(=O)CCCN1C(=O)CN=C(c2ccccc2)c2cc(Cl)ccc21 (centres undefined) | 2.61 µM (inactive) | 25.5 µM (inactive) | 15.3 µM (inactive) | > 66.5 µM (inactive) | 36.9 µM (inactive) | 4.37 µM (inactive) | 7.08 µM (inactive) | 7 µM (inactive) | 12.4 µM (inactive) | 18.6 µM (inactive) | 10.2 µM (inactive) | 22.1 µM (inactive) | 3.03 µM (inactive) | 4.43 µM (inactive) | 41.3 µM (inactive) | 27.3 µM (inactive) | > 100 µM (inactive) | 6.37 µM (inactive) | 4.01 µM (inactive) | 
O=C1c2cccnc2C(=O)c2c1nc1ccccc1c2-c1cncc(-c2c3c(nc4ccccc24)C(=O)c2cccnc2C3=O)c1 | 0.198 µM (active) | 0.212 µM (active) | 0.327 µM (active) | 0.458 µM (active) | 0.281 µM (active) | < 0.0144 µM (active) | 0.124 µM (active) | 0.115 µM (active) | 0.359 µM (active) | 0.236 µM (active) | 0.041 µM (active) | 0.237 µM (active) | 0.22 µM (active) | 0.126 µM (active) | 0.264 µM (active) | 0.146 µM (active) | 0.22 µM (active) | 2.19 µM (inactive) | 0.159 µM (active) | 
CC1=C(C(=O)Nc2ccccc2)C(c2ccccc2)C(C(=O)Nc2ccccc2)=C(C)N1 |  | 17.3 µM (inactive) | 32.2 µM (inactive) | 91 µM (inactive) | > 100 µM (inactive) | 75.9 µM (inactive) | 17.6 µM (inactive) | 31.5 µM (inactive) | 31 µM (inactive) | 60.7 µM (inactive) | 47.5 µM (inactive) |  | 55.8 µM (inactive) | > 100 µM (inactive) | 76.4 µM (inactive) | 48.1 µM (inactive) | 94.4 µM (inactive) | > 100 µM (inactive) | 42.5 µM (inactive) | 22.1 µM (inactive)
O=C(O)c1cc(/N=N/c2ccc([As](=O)(O)O)cc2)ccc1O | > 100 µM (inactive) | > 100 µM (inactive) | > 100 µM (inactive) | > 100 µM (inactive) | > 100 µM (inactive) | > 100 µM (inactive) | > 100 µM (inactive) | > 100 µM (inactive) | > 100 µM (inactive) | > 100 µM (inactive) | > 100 µM (inactive) | > 100 µM (inactive) | > 100 µM (inactive) | > 100 µM (inactive) | > 100 µM (inactive) | > 100 µM (inactive) | > 100 µM (inactive) | > 100 µM (inactive) | > 100 µM (inactive) | 
CCc1ccc(/C=C/C(=O)C2CN(CC)CCC2(O)/C=C/c2ccc(CC)cc2)cc1 (centres undefined) | 1.87 µM (inactive) | 1.87 µM (inactive) | 1.83 µM (inactive) | 2.34 µM (inactive) | 1.91 µM (inactive) | 2.06 µM (inactive) | 1.95 µM (inactive) | 2.61 µM (inactive) | 2.22 µM (inactive) | 4.2 µM (inactive) | 1.88 µM (inactive) | 2.23 µM (inactive) | 1.55 µM (inactive) | 4.09 µM (inactive) | 4.75 µM (inactive) | 1.66 µM (inactive) | 7.62 µM (inactive) | 2.31 µM (inactive) | 4.57 µM (inactive) | 
CCOc1ccc(/N=C/C=C(\Cl)c2ccc3ccccc3c2)cc1 | 3.56 µM (inactive) | 16.3 µM (inactive) | 11.5 µM (inactive) | 17.5 µM (inactive) | 15.3 µM (inactive) | 17.1 µM (inactive) | 17.7 µM (inactive) | 20.8 µM (inactive) | 0.022 µM (active) | 10.6 µM (inactive) | 7.33 µM (inactive) | 15.4 µM (inactive) | 11.8 µM (inactive) | 17.4 µM (inactive) | 27.2 µM (inactive) | 17.5 µM (inactive) | 16.4 µM (inactive) | 21.2 µM (inactive) | 17.9 µM (inactive) | 
O=C(CC1C(=O)Nc2ccccc2S1(=O)=O)Nc1cc(Cl)ccc1Cl (centres undefined) | 17.8 µM (inactive) |  | 17.4 µM (inactive) | 20.1 µM (inactive) |  | 13.1 µM (inactive) | 17.2 µM (inactive) | 14.3 µM (inactive) | 20.5 µM (inactive) | 16.8 µM (inactive) | 19.4 µM (inactive) |  | 16.6 µM (inactive) | 15.6 µM (inactive) | 10.6 µM (inactive) | 10 µM (inactive) | 15.5 µM (inactive) | 2.4 µM (inactive) | 10.8 µM (inactive) | 14.1 µM (inactive)
Cc1ccc(NC(=O)C2C(=O)N(c3ccc(C)cc3)C(=O)/C2=N\NC(N)=S)cc1 (centres undefined) |  | > 100 µM (inactive) | > 100 µM (inactive) | > 100 µM (inactive) | > 100 µM (inactive) | > 100 µM (inactive) | > 100 µM (inactive) | > 100 µM (inactive) | > 100 µM (inactive) | > 100 µM (inactive) | > 100 µM (inactive) |  | > 100 µM (inactive) | > 100 µM (inactive) | > 100 µM (inactive) | > 100 µM (inactive) | > 100 µM (inactive) | > 100 µM (inactive) | > 100 µM (inactive) | > 100 µM (inactive)
C=C1C(=O)C23C(CC(OC(C)=O)C1[C@@H]2OC(C)=O)C1(C)C(OC(C)=O)CCC(C)(C)C1C[C@@H]3OC(C)=O (some centres undefined) |  | 1.91 µM (inactive) | 1.01 µM (active) |  | 3.14 µM (inactive) | 1.45 µM (inactive) | 1.56 µM (inactive) | 1.56 µM (inactive) | 1.84 µM (inactive) | 1.91 µM (inactive) | 1.26 µM (inactive) |  | 1.87 µM (inactive) | 1.46 µM (inactive) | 3.31 µM (inactive) | 1.55 µM (inactive) | 1.86 µM (inactive) | 1.76 µM (inactive) | 1.56 µM (inactive) | 1.35 µM (inactive)
Cn1c(=S)[nH]c(N)c(Cc2ccccc2)c1=O | > 100 µM (inactive) | 66.1 µM (inactive) | 77.8 µM (inactive) | 81.8 µM (inactive) | > 100 µM (inactive) | 21.2 µM (inactive) | > 100 µM (inactive) | > 100 µM (inactive) | > 100 µM (inactive) | > 100 µM (inactive) | > 100 µM (inactive) | > 100 µM (inactive) | > 100 µM (inactive) | > 100 µM (inactive) | 92.5 µM (inactive) | > 100 µM (inactive) | > 100 µM (inactive) | > 100 µM (inactive) | > 100 µM (inactive) | 
COc1ccc(-c2coc3cc(OC)cc(O)c3c2=O)cc1 [4',7-DIMETHOXY-5-HYDROXYGENISTEIN] | > 100 µM (inactive) | > 100 µM (inactive) | > 100 µM (inactive) | 29.6 µM (inactive) | 32.4 µM (inactive) | > 100 µM (inactive) | 34.4 µM (inactive) | 52.7 µM (inactive) | > 100 µM (inactive) | > 100 µM (inactive) | > 100 µM (inactive) | 31 µM (inactive) | > 100 µM (inactive) | > 100 µM (inactive) | > 100 µM (inactive) | 43.3 µM (inactive) | 31.4 µM (inactive) | 78.3 µM (inactive) | 51.3 µM (inactive) | 
